Test results published in US10800791B2, “Triazole ACC inhibitors and uses thereof” (Gilead Apollo, LLC, priority 2015, dated 2020).
pIC50: −log10 of the molar value. In brackets after ≈: the same amount, converted by molar mass. Where two headings read alike, the source gives them in different places.

What was measured:
ACC1 = ACC1 isolated from rat, mouse, monkey and human; cited from earlier work
ACC2 = ACC2 isolated from rat, mouse, monkey and human; cited from earlier work
fungal (fACC2) = fungal (fACC2) (UniProt Q00955); settings: read-out: fACC2 (in vitro ACC2 Inhibition Assay, IC50); Table 2b, additional results; ADP-Glo, 5 nM ACC2, 20 μM ATP, 20 μM acetyl-CoA
[1] = test system: Phytophthora capsici (Pc); assay: Growth inhibition assay of fungal pathogens, Pc; type: cell-based; settings: 48 h
How it was run: (§1)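 Read-out: OD600 plus visual rating at 24 and 48 h, blank (media + 2% DMSO) subtracted. Percent inhibition was derived at 48 h versus the 2% DMSO control. Spores were grown in 17% V8 broth with compound at 50/10/2 or 2/0.4/0.08 ppm final.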

[2] = test system: Fusarium virguliforme (Fv); assay: Growth inhibition assay of fungal pathogens, Fv; type: cell-based; settings: 48 h
How it was run: as §1

[3] = test system: Collectotrichum graminicola (Cg); assay: Growth inhibition assay of fungal pathogens, Cg; type: cell-based; settings: 48 h, growth inhibition at 48 hours vs 2% DMSO control
How it was run: as §1

C. parapsilosis = assay: Antifungal Activity Assay (broth microtiter MIC), C. parapsilosis; type: cell-based, Candida parapsilosis; settings: Lodderomyces parapsilosis, ATCC22019, 48 h
How it was run: (§2)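 MICs were scored by eye at 48 h relative to the growth control. Plates followed CLSI M27-A3, with Candida suspensions in RPMI 1640+MOPS giving a final 2.5×10^3 CFU/mL; the colonies came from Sabouraud agar grown overnight at 35 °C.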

C. krusei = assay: Antifungal Activity Assay (broth microtiter MIC), C. krusei; type: cell-based, Candida krusei; settings: Pichia kudriavzevii, ATCC6258, 48 h
How it was run: as §2

Botrtyis cinerea (Bc) = assay: Growth inhibition assay of fungal pathogens, Bc; type: cell-based; settings: 48 h, growth inhibition at 48 hours vs 2% DMSO control
How it was run: as §1

Rhizoctonia solani (Rs) = assay: Growth inhibition assay of fungal pathogens, Rs; type: cell-based; settings: 48 h
C. albicans = assay: Antifungal Activity Assay (broth microtiter MIC), C. albicans; type: cell-based, Candida albicans; settings: Candida albicans, ATCC90028, 48 h
How it was run: as §2

[4] = test system: Fusarium moniliforme (Fm); assay: Growth inhibition assay of fungal pathogens, Fm; type: cell-based; settings: Fusarium verticillioides, 48 h, read-out: Concentration at 90% Inhibition Fm
How it was run: as §1

human (hACC2) = human (hACC2) (Homo sapiens, UniProt O00763); assay: In vitro ACC inhibition assay (ADP-Glo), hACC2; type: biochemical; settings: Table 2b, additional results, 5 nM ACC2, 20 μM ATP, 20 μM acetyl-CoA
Experimental: The detailed procedure is as follows. […] 10 μL ADP glo reagent was added. […] 20 μL kinase detection reagent was added.

Diplodia maydis (Dm) = assay: Growth inhibition assay of fungal pathogens, Dm; type: cell-based; settings: Stenocarpella maydis, 48 h, growth inhibition at 48 hours vs 2% DMSO control
How it was run: as §1

Septoria tritici (St) = assay: Growth inhibition assay of fungal pathogens, St; type: cell-based; settings: Zymoseptoria tritici, 48 h, growth inhibition at 48 hours vs 2% DMSO control
How it was run: as §1

[5] = read-out: Concentration at 90% Inhibition Pc, Phytophthora capsici, growth inhibition at 48 hours vs 2% DMSO control
[6] = read-out: Concentration at 90% Inhibition Fv, Fusarium virguliforme, growth inhibition at 48 hours vs 2% DMSO control
[7] = read-out: Concentration at 90% Inhibition Cg, Collectotrichum graminicola
[8] = read-out: MIC, C. parapsilosis ATCC 22019, Table 3b (additional results), 3 replicates, MIC recorded at 48 h
[9] = read-out: MIC, C. krusei ATCC 6258, Table 3b (additional results), 3 replicates, MIC recorded at 48 h
[10] = read-out: Concentration at 90% Inhibition Bc, Botrtyis cinerea
[11] = read-out: Concentration at 90% Inhibition Rs, Rhizoctonia solani, mycelial plugs, growth inhibition at 48 hours vs 2% DMSO control
[12] = read-out: MIC, C. albicans ATCC 90028, Table 3b (additional results), 3 replicates, MIC recorded at 48 h
[13] = read-out: Concentration at 90% Inhibition Dm, Diplodia maydis
[14] = read-out: Concentration at 90% Inhibition St, Septoria tritici
[15] = growth inhibition at 48 hours vs 2% DMSO control, read-out: Concentration at 90% Inhibition Pc
[16] = growth inhibition at 48 hours vs 2% DMSO control, read-out: Concentration at 90% Inhibition Fv
[17] = Collectotrichum graminicola, read-out: Concentration at 90% Inhibition Cg
[18] = Table 3b (additional results), ATCC 22019, 3 replicates, MIC recorded at 48 h, read-out: MIC, C. parapsilosis ATCC 22019
[19] = Table 3b (additional results), ATCC 6258, 3 replicates, MIC recorded at 48 h, read-out: MIC, C. krusei ATCC 6258
[20] = Botrtyis cinerea, read-out: Concentration at 90% Inhibition Bc
[21] = mycelial plugs, growth inhibition at 48 hours vs 2% DMSO control, read-out: Concentration at 90% Inhibition Rs
[22] = Table 3b (additional results), ATCC 90028, 3 replicates, MIC recorded at 48 h, read-out: MIC, C. albicans ATCC 90028
[23] = Fusarium moniliforme, growth inhibition at 48 hours vs 2% DMSO control
[24] = Diplodia maydis, read-out: Concentration at 90% Inhibition Dm
[25] = Septoria tritici, read-out: Concentration at 90% Inhibition St

Chain of human (hACC2) (O00763 whole entry): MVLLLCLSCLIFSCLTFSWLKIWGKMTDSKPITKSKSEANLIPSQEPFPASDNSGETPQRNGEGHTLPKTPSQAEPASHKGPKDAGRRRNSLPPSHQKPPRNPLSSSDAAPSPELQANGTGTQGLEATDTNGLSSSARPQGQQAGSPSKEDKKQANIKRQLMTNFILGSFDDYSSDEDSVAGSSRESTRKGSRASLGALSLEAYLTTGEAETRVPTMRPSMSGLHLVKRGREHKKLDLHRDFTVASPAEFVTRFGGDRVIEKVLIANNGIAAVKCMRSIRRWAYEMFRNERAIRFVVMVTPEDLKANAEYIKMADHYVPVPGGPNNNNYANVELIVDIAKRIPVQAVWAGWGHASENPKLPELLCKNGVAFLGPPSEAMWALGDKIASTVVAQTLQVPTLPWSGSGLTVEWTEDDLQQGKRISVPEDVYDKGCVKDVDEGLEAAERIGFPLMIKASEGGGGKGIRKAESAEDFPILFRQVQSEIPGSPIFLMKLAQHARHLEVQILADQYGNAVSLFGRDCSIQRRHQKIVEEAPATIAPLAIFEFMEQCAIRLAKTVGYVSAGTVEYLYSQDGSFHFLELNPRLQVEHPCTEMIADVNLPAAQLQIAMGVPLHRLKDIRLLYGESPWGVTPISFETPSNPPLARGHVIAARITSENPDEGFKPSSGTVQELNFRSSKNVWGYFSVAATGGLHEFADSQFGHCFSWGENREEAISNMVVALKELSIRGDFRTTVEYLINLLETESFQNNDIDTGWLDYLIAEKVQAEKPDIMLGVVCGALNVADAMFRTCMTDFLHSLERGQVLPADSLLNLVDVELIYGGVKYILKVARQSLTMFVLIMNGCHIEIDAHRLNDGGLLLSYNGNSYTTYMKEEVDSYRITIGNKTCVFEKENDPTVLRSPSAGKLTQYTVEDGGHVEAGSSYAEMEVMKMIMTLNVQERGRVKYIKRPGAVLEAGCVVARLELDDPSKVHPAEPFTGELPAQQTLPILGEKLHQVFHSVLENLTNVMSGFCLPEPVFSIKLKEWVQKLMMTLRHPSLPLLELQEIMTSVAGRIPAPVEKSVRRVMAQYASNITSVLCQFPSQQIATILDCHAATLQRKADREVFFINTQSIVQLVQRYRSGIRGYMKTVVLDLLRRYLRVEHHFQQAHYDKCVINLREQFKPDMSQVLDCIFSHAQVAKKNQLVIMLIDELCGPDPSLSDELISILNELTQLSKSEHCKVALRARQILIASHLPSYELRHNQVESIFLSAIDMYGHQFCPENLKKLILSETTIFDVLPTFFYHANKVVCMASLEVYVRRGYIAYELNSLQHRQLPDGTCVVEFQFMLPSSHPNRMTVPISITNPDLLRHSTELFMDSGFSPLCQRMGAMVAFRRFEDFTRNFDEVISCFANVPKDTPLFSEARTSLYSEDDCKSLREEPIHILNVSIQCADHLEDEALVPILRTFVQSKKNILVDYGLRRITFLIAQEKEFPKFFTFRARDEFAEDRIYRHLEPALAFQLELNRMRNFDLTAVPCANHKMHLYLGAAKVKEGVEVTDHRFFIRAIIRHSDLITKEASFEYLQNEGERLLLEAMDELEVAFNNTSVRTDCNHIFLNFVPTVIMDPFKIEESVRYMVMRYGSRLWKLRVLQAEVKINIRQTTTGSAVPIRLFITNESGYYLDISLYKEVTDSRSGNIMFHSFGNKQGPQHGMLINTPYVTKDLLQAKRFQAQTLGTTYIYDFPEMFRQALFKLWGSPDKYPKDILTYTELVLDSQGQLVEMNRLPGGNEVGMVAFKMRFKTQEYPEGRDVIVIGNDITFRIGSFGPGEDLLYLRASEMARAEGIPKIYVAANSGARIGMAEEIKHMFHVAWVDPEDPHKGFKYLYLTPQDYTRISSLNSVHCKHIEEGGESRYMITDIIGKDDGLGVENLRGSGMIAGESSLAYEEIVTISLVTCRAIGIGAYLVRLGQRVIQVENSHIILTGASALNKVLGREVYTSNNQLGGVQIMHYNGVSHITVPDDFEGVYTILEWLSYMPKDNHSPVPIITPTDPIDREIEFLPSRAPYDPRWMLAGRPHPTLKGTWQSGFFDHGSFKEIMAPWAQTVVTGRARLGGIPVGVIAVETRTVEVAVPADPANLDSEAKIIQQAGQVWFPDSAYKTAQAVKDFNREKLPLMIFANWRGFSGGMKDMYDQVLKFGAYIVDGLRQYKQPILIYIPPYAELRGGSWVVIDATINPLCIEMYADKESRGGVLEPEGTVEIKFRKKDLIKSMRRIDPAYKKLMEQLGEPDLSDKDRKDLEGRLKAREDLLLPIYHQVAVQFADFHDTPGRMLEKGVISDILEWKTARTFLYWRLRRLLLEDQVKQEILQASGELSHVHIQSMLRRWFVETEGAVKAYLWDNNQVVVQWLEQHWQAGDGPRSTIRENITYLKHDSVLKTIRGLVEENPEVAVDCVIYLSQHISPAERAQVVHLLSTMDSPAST
Chain of fungal (fACC2) (Q00955 whole entry): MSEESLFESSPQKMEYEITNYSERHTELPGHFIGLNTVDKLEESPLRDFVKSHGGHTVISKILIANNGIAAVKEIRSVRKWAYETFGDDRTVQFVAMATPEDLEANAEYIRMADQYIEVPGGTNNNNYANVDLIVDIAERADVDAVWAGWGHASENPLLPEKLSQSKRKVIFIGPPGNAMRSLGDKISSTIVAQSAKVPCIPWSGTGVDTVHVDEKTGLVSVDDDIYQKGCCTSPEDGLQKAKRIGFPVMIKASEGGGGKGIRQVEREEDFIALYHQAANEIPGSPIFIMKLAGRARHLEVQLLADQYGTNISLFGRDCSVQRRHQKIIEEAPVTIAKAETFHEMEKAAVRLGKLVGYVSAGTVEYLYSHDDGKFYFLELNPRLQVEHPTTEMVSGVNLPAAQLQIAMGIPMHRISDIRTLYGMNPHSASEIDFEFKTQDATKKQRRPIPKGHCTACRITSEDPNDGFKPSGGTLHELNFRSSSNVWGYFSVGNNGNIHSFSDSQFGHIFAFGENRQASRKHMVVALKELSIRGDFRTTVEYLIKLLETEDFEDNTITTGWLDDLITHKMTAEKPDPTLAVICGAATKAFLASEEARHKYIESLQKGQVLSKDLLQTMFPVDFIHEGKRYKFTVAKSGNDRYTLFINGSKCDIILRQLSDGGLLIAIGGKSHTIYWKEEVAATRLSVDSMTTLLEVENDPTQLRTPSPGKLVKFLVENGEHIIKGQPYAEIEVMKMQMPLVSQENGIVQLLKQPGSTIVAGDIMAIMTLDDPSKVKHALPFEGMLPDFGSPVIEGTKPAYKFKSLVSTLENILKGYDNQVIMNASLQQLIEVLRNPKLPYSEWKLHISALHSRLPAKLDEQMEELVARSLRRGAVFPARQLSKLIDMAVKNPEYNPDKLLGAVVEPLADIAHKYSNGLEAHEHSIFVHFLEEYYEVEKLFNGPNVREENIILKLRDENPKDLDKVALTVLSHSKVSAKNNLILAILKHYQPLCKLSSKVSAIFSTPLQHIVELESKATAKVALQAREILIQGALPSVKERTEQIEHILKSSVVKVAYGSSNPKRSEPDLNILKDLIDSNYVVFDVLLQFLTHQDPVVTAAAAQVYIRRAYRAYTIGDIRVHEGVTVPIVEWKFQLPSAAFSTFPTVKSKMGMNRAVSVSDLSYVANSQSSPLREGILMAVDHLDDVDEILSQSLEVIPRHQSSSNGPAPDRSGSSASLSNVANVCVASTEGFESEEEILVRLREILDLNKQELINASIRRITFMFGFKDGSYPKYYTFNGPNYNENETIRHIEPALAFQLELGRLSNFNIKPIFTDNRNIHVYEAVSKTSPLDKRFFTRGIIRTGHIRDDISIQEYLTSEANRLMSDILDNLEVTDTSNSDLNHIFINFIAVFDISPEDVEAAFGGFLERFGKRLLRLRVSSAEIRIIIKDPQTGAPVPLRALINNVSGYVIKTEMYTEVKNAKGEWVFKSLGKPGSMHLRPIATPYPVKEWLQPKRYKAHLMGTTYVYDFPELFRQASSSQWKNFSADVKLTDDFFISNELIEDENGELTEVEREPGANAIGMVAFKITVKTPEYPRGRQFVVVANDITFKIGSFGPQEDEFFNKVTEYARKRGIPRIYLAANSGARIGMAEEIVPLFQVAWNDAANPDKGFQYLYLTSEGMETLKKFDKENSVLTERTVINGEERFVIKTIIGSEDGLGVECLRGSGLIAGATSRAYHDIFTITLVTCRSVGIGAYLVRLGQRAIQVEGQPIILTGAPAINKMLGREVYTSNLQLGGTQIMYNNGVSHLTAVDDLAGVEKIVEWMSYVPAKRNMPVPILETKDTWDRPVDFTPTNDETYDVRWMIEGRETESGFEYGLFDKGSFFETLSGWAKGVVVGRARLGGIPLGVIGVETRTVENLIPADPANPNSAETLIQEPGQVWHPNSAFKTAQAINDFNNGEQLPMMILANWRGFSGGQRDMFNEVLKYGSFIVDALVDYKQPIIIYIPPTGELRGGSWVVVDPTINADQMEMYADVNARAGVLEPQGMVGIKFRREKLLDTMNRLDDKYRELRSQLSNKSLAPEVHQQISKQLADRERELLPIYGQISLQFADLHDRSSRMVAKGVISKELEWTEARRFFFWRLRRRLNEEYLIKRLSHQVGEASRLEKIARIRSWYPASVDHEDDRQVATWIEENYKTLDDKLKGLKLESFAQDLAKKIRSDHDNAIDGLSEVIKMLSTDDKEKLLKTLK

| SMILES | pIC50 (fungal (fACC2)) | IC90 [1, 5] | IC90 [2, 6] | IC90 [3, 7] | MIC (C. parapsilosis; [8]) | MIC (C. krusei; [9]) | IC90 (Botrtyis cinerea (Bc); [10]) | IC90 (Rhizoctonia solani (Rs); [11]) | MIC (C. albicans; [12]) | IC90 [4] | pIC50 (human (hACC2)) | IC90 (Diplodia maydis (Dm); [13]) | IC90 (Septoria tritici (St); [14]) | IC90 [1, 15] | IC90 [2, 16] | IC90 [3, 17] | MIC (C. parapsilosis; [18]) | MIC (C. krusei; [19]) | IC90 (Botrtyis cinerea (Bc); [20]) | IC90 (Rhizoctonia solani (Rs); [21]) | further results |
| --- | --- | --- | --- | --- | --- | --- | --- | --- | --- | --- | --- | --- | --- | --- | --- | --- | --- | --- | --- | --- | --- |
| O=C(c1c2ccccc2cc2ccccc12)N1CCC(N2CCC[C@@H](C(=O)N3CCOCC3)C2)CC1 [CP-640186] | – | – | – | – | – | – | – | – | – | – | – | – | – | – | – | – | – | – | – | – | pIC50 (ACC1): ~7.22; pIC50 (ACC2): ~7.22 |
| CCOC(=O)c1ccccc1[C@H](Cn1c(=O)n(C(C)(C)C(=O)NC(C)C)c(=O)c2c(C)c(-n3nccn3)sc21)OCCC#N [Compound I-275] | 9.00 to 9.52 | > 50 µg/mL | 2 µg/mL (≈ 3.22 µM) | > 50 µg/mL | 2.01 to 4 µg/mL (≈ 3.23 to 6.43 µM) | 2.01 to 4 µg/mL (≈ 3.23 to 6.43 µM) | 10 µg/mL (≈ 16.1 µM) | 10 µg/mL (≈ 16.1 µM) | 2.01 to 4 µg/mL (≈ 3.23 to 6.43 µM) | 2 µg/mL (≈ 3.22 µM) | < 7.40 | > 50 µg/mL | > 50 µg/mL | – | – | – | – | – | – | – | – |
| CCc1ccc(F)cc1CCn1c(=O)n(C(C)(C)C(=O)NC(C)C)c(=O)c2c(C)c(-n3nccn3)sc21 [Compound I-276] | 9.00 to 9.52 | > 50 µg/mL | 0.08 µg/mL (≈ 0.152 µM) | 2 µg/mL (≈ 3.8 µM) | 2.01 to 4 µg/mL (≈ 3.82 to 7.6 µM) | 1.01 to 2 µg/mL (≈ 1.92 to 3.8 µM) | 2 µg/mL (≈ 3.8 µM) | 10 µg/mL (≈ 19 µM) | 2.01 to 4 µg/mL (≈ 3.82 to 7.6 µM) | 0.08 µg/mL (≈ 0.152 µM) | 8.00 to 8.30 | 2 µg/mL (≈ 3.8 µM) | > 50 µg/mL | – | – | – | – | – | – | – | – |
| Cc1c(-n2nccn2)sc2c1c(=O)n(C(C)(C)C(=O)NC(C)C)c(=O)n2CCc1cc(F)ccc1OCc1ccccc1 [Compound I-277] | 8.30 to 9.00 | > 50 µg/mL | 2 µg/mL (≈ 3.31 µM) | > 50 µg/mL | 1.01 to 2 µg/mL (≈ 1.67 to 3.31 µM) | 1.01 to 2 µg/mL (≈ 1.67 to 3.31 µM) | > 50 µg/mL | > 50 µg/mL | 1.01 to 2 µg/mL (≈ 1.67 to 3.31 µM) | 2 µg/mL (≈ 3.31 µM) | 7.40 to 8.00 | > 50 µg/mL | > 50 µg/mL | – | – | – | – | – | – | – | – |
| Cc1c(-n2nccn2)sc2c1c(=O)n(C(C)(C)C(=O)NC(C)C)c(=O)n2CCc1cc(F)ccc1CCCC#N [Compound I-278] | 8.30 to 9.00 | – | – | – | – | – | – | – | – | – | 7.40 to 8.00 | – | – | > 50 µg/mL | 0.4 µg/mL (≈ 0.707 µM) | 10 µg/mL (≈ 17.7 µM) | 2.01 to 4 µg/mL (≈ 3.55 to 7.07 µM) | 1.01 to 2 µg/mL (≈ 1.79 to 3.54 µM) | 2 µg/mL (≈ 3.54 µM) | 10 µg/mL (≈ 17.7 µM) | MIC (C. albicans; [22]): 2.01 to 4 µg/mL (≈ 3.55 to 7.07 µM); IC90 [4, 23]: 0.4 µg/mL (≈ 0.707 µM); IC90 (Diplodia maydis (Dm); [24]): 2 µg/mL (≈ 3.54 µM); IC90 (Septoria tritici (St); [25]): > 50 µg/mL |
| Cc1c(-n2nccn2)sc2c1c(=O)n(C(C)(C)C(=O)NC(C)C)c(=O)n2CCc1cc(F)ccc1OC1CCOCC1 [Compound I-279] | 9.00 to 9.52 | – | – | – | – | – | – | – | – | – | 7.40 to 8.00 | – | – | > 50 µg/mL | 0.08 µg/mL (≈ 0.134 µM) | 10 µg/mL (≈ 16.7 µM) | 1.01 to 2 µg/mL (≈ 1.69 to 3.34 µM) | 2.01 to 4 µg/mL (≈ 3.36 to 6.68 µM) | 2 µg/mL (≈ 3.34 µM) | 10 µg/mL (≈ 16.7 µM) | MIC (C. albicans; [22]): 2.01 to 4 µg/mL (≈ 3.36 to 6.68 µM); IC90 [4, 23]: 0.08 µg/mL (≈ 0.134 µM); IC90 (Diplodia maydis (Dm); [24]): > 50 µg/mL; IC90 (Septoria tritici (St); [25]): > 50 µg/mL |
| Cc1c(-n2nccn2)sc2c1c(=O)n(C(C)(C)C(=O)NC(C)C)c(=O)n2CCc1cc(F)ccc1OCCC#N [Compound I-280] | 8.30 to 9.00 | > 50 µg/mL | 2 µg/mL (≈ 3.52 µM) | > 50 µg/mL | 1.01 to 2 µg/mL (≈ 1.78 to 3.52 µM) | 1.01 to 2 µg/mL (≈ 1.78 to 3.52 µM) | 10 µg/mL (≈ 17.6 µM) | > 50 µg/mL | 1.01 to 2 µg/mL (≈ 1.78 to 3.52 µM) | 2 µg/mL (≈ 3.52 µM) | 7.40 to 8.00 | > 50 µg/mL | > 50 µg/mL | – | – | – | – | – | – | – | – |
| Cc1c(-n2nccn2)sc2c1c(=O)n(C(C)(C)C(=O)NC(C)C)c(=O)n2CCc1cc(F)ccc1OC(C)C [Compound I-281] | 9.00 to 9.52 | – | – | – | – | – | – | – | – | – | 7.40 to 8.00 | – | – | > 50 µg/mL | 0.08 µg/mL (≈ 0.144 µM) | 10 µg/mL (≈ 18 µM) | 2.01 to 4 µg/mL (≈ 3.61 to 7.19 µM) | 1.01 to 2 µg/mL (≈ 1.81 to 3.59 µM) | 2 µg/mL (≈ 3.59 µM) | 10 µg/mL (≈ 18 µM) | MIC (C. albicans; [22]): > 4.01 µg/mL; IC90 [4, 23]: 0.08 µg/mL (≈ 0.144 µM); IC90 (Diplodia maydis (Dm); [24]): 2 µg/mL (≈ 3.59 µM); IC90 (Septoria tritici (St); [25]): > 50 µg/mL |
